One series deals with Candide I. Kind of series: microbe, parasite or virus in culture. Type of series: cell-based, Junin virus (vaccine strain). The note with it: Mammarenavirus juninense, read-out: Candide I.
The test system of series [1] is Tacaribe virus (TRVL 11573). Briefly: microbe, parasite or virus in culture. Type of series: cell-based. The note with it: Mammarenavirus tacaribeense, Vero, read-out: Tacaribe EC50.
Series [2] concerns Guanarito pseudotyped virus. Briefly: microbe, parasite or virus in culture. Type of series: cell-based. The note with it: Mammarenavirus guanaritoense, read-out: EC50 vs. pseudotyped virus (μM) Guanarito.
Series [3] has as its system Tacaribe pseudotyped virus. Kind of series: microbe, parasite or virus in culture. The format is cell-based. The conditions noted are these: Mammarenavirus tacaribeense, read-out: EC50 vs. pseudotyped virus (μM) Tacaribe.
The subject of series [4] is Candid-1 vaccine virus. Briefly: microbe, parasite or virus in culture. The format is cell-based, Junin virus (vaccine strain). The conditions noted are these: Mammarenavirus juninense, Vero, 168 h, read-out: Candid 1 EC50.
Series [5] relates to Tacaribe virus. Briefly: microbe, parasite or virus in culture. Type of series: cell-based. The conditions noted are these: Mammarenavirus tacaribeense, Vero, 168 h, read-out: Tacaribe EC50.
Another series concerns VSV pseudotyped virus. Briefly: microbe, parasite or virus in culture. Type of series: cell-based. The conditions noted are these: Vesicular stomatitis virus, read-out: EC50 vs. pseudotyped virus (μM) VSV.
The test system of series [6] is Machupo pseudotyped virus. Kind of series: microbe, parasite or virus in culture. The note with it: Mammarenavirus machupoense, read-out: EC50 vs. pseudotyped virus (μM) Machupo. The format is cell-based.
In series [7] the test system is Pichinde pseudotyped virus. Kind of series: microbe, parasite or virus in culture. The note with it: read-out: EC50 vs. pseudotyped virus (μM) Pichinde. The format is cell-based.
A further series relates to Junin virus. Type of series: cell-based. The note with it: read-out: Junin (Plaque reduction) EC50.
The subject of series [8] is S. typhimurium tester strains TA7007, TA7006 and TA98.
For series [9] the following is noted: mouse, in vivo, ip, 100 mg/kg/day.
In another series the test system is Machupo virus. Type of series: cell-based. The conditions noted are these: read-out: Machupo (Plaque reduction) EC50.
Series [10] has as its system Tacaribe virus. Type of series: cell-based. The conditions noted are these: for EC50: read-out: Tacaribe (CPE) EC50.
The subject of series [11] is Tacaribe virus. Type of series: cell-based. The conditions noted are these: read-out: Tacaribe (Plaque reduction) EC50.
For a further series, the system named is Guanarito virus. Type of series: cell-based. The conditions noted are these: read-out: Guanarito (Plaque reduction) EC50.
Series [12] has as its system Tacaribe virus. Also noted: species or system BALB/c mice. The note with it: mouse, in vivo.
The conditions of series [13]: in vivo, 10 mg/kg.
The test system of series [14] is ST-336 drug resistant Tacaribe virus variants (DR#1-4). Type of series: cell-based.
The conditions of series [15]: in vivo.
The test system of a further series is vaccinia virus. The format is cell-based. The conditions noted are these: read-out: Vaccinia (CPE) EC50.
Another series concerns HSV-1. The format is cell-based, herpes simplex virus 1. The conditions noted are these: read-out: HSV-1 (CPE) EC50.
The subject of series [16] is Candid-1 vaccine virus. The format is cell-based, Junin virus (vaccine strain). The conditions noted are these: read-out: Candid1 (CPE) EC50.
The test system of series [17] is intact Tacaribe virion. Type of series: binding, Tacaribe virus.
The test system of series [18] is intact Tacaribe virion. The format is binding, Tacaribe virus. This is another data set of the same source.
Another series deals with Ebola virus. The format is cell-based. The conditions noted are these: read-out: Ebola (CPE) EC50.
Another series deals with SARS-CoV. Type of series: cell-based. The conditions noted are these: read-out: SARS (CPE) EC50.
For another series, the system named is RSV-A. The format is cell-based, Respiratory syncytial virus. The conditions noted are these: read-out: RSV-A (CPE) EC50.
A further series has as its system CMV. The format is cell-based, cytomegalovirus. The note with it: read-out: CMV (Elisa) EC50.
Another series has as its system LCMV. The format is cell-based, lymphocytic choriomeningitis virus. The note with it: read-out: LCMV (Elisa) EC50.
The test system of the next series is Rotavirus. Type of series: cell-based. The note with it: read-out: Rotavirus (CPE) EC50.
The conditions of series [19]: in vivo. The source holds these as a separate data set.
The subject of a further series is Lassa virus. Type of series: cell-based. The note with it: read-out: Lassa (plaque reduction) EC50.
A further series concerns Amapari virus. Type of series: cell-based. The conditions noted are these: read-out: Amapari (CPE) EC50.
Series [20] concerns Tacaribe virus. Type of series: cell-based.
For series [21] the following is noted: in vivo; cited from earlier work.

This is an account of results in patent US8658697B2 (priority 2004, dated 2014).

The structures appear in SMILES notation. Like-named read-outs stand apart in the source and are kept apart here.

For `Cc1nn(C)c(Cl)c1S(=O)(=O)NNC(=O)NC(C)(C(F)(F)F)C(F)(F)F` [Example 21, N-2-(1,1,1,3,3,3-Hexafluoro-2-methylpropyl)-2-[2-(5-chloro-1,3-dimethyl-1H-pyrazolyl)sulfonyl]hydrazine-1-carboxamide], the EC50 with Candide I fell in the range of 1000 to 5000 nM; in [1], 500 to 1000 nM.

Take `CC(=O)c1ccc(S(=O)(=O)NNC(=O)NC(C)(C(F)(F)F)C(F)(F)F)cc1` [Example 39, N-2-(1,1,1,3,3,3-Hexafluoro-2-methylpropyl)-2-[(4-acetylphenyl)sulfonyl]hydrazine-1-carboxamide]: the EC50 in the series on Candide I is > 5000 nM; in [1], 1000 to 5000 nM.

Take `CCC(NC(=O)NNC(=O)c1cc(Cl)ccc1OC)(C(F)(F)F)C(F)(F)F` [Example 112, N-[1,1-bis(trifluoromethyl)propyl]-2-(5-chloro-2-methoxybenzoyl)hydrazinecarboxamide]: the EC50 was < 0.5 µM in series [2]; < 0.5 µM in series [3]; > 5000 nM in the series with Candid-1 vaccine virus [4]; < 500 nM in the series with Tacaribe virus [5]; > 5 µM in the series on VSV pseudotyped virus; < 0.5 µM in series [6]. Moreover, the EC50 in series [7] was 1 to 5 µM.

For `CC(NC(=O)NNS(=O)(=O)c1ccc(OC(F)F)cc1)(C(F)(F)F)C(F)(F)F` [ST-294, N-2-(1,1,1,3,3,3-hexafluoro-1-methylpropyl)-2-[(4-difluoromethoxyphenyl)sulfonyl]hydrazine-1-carboxamide], the EC50 with Junin virus came out at 300 nM; with Machupo virus, 300 nM; in the series on Tacaribe virus [10], 120 nM; in the series with Tacaribe virus [11], 100 nM; in the series with Guanarito virus it was 1000 nM. Also, the “Genotoxicity (Ames test)” value in series [8] is on record as “negative”. In the series with Vero cells, the CC50 was > 50000 nM. Moreover, the tolerability result in series [9] is on record as “well tolerated”. Besides, the “in vitro antiviral concentration required to inhibit Tacaribe virus CPE (EC50)” value in the series on Tacaribe virus [10] worked out at 0.066 µg/mL. Moreover, the “efficacy (survival, delay in death)” value in the series on Tacaribe virus [12] is “showed efficacy”. Also, in [13], the “PK (newborn mouse/IP) Cmax” value is 2910 ng/mL. Besides, the “PK (newborn mouse/IP) ½ life” value in series [13] was determined as 3 h. For the same molecule, the “susceptibility of drug resistant Tacaribe mutants (DR#1-4)” value in [14] is “cross-resistance”. Moreover, in [15], the “PK (rat/oral) ½ life” value stood at 2 h. In addition, the “Cmax (serum levels)” value in [15] (rat, po) is 6670 ng/mL.

With `CCC(NC(=O)NNS(=O)(=O)c1ccc(C)cc1)(C(F)(F)F)C(F)(F)F` [ST-336], the EC50 is 150 nM with Junin virus; > 20000 nM with vaccinia virus; > 20000 nM in the series on HSV-1; 62 nM with Candid-1 vaccine virus [16]; > 20000 nM in the series with Ebola virus; > 20000 nM in the series with SARS-CoV. The EC50 in the series on Machupo virus is 150 nM; in the series with Tacaribe virus [10] it was 55 nM; in the series with RSV-A it was > 20000 nM; in the series with Tacaribe virus [11], 100 nM; in the series on Guanarito virus it was 300 nM; in the series on CMV, > 20000 nM. Besides, the EC50 in the series on LCMV, with Rotavirus, in the series with Lassa virus and in the series with Amapari virus was > 20000 nM each time. For the same molecule, the “binding to intact virus (serial dilution)” value in the series on intact Tacaribe virion [17] is given as “binds with at least a slow Koff to intact protein present on Tacaribe virus”. Also, the “binding to intact virions (dialysis)” value in the series on intact Tacaribe virion [18] is “binds intact virions with a very slow dissociation constant”. The EC90 with Tacaribe virus [10] (read-out: Tacaribe (CPE) EC90) is 125 nM. In addition, the “pharmacokinetic (PK) properties in rodents” value in [19] is given as “poor pharmacokinetic (PK) properties”. The “growth of ST-336 DR isolates in the presence of compound” value in series [14] is listed as “unaffected”. The “effect on Tacaribe virus yield” value in the series with Tacaribe virus [20] was “no effect on virus yield”. In addition, in the series with Tacaribe virus [20], the “effect on Tacaribe virus yield by time of addition” value is listed as “exerted its inhibitory effect only at the very early stage in the virus life cycle”.

For the molecule `NC(=O)c1ncn([C@@H]2O[C@H](CO)[C@@H](O)[C@H]2O)n1` [ribavirin, Ribavirin], the adverse effects entry in [21] is recorded as “dose-related, reversible hemolytic anemia”.
